The source of these data is patent US20250376473A1, “PRMTS INHIBITOR AND USE THEREOF” (Cytosinlab Therapeutics Co., Ltd., priority 2022, published 2025).

Assay [1] concerns HCT116-MTAP-KO cells (HCT116 MTAP null). Briefly: Proliferation inhibition of HCT116 MTAP-KO cells in vitro (CellTiter Glo). Conditions: 6 days, 9 concentrations starting from 3 μM, read-out: Cell proliferation inhibition rate HCT116 MTAP null IC50 (nm). It is filed as cell-based. An excerpt:
(§1) Biological Test Example 2 Proliferation Inhibition of HCT116 and HCT116 MTAP-KO Cells in Vitro
(§2) HCT116 cell line was purchased from the Chinese Academy of Sciences Cell Bank, and the MTAP gene was knocked out by CRISPR/Cas9 technology to obtain HCT116-MTAP-KO cell line.
(§3) McCoy's 5A medium (Gibco, catalog No. 16600082), fetal bovine serum (Gibco, catalog No. 10099141C), penicillin-streptomycin double antibody (Gibco, catalog No. 15140122), pancreatic enzyme (Gibco, catalog No. 25200056), CellTiter Glo assay kit (Promega, catalog No. G7572), 384-well transparent flat-bottomed black walled cell culture plate (Corning, catalog No. 3764), ultra micro sampler (Tecan, catalog No.D300e), Multimode reader (Biotek, catalog No. SynergyHTX)
(§4) 1. Cell culture: HCT116 and HCT116-MTAP-KO cells were cultured in McCoy'5A medium+10% fetal bovine serum+1% penicillin-streptomycin double antibody; to ensure that they were always in the logarithmic growth phase and the cell viability greater than 95%.
(§5) 2. Compound concentration gradient preparation: The compound to be tested was added to a 384-well plate using an ultra micro sampler, starting from 30 μM (HCT116 cells) or 3 μM (HCT116-MTAP-KO cells), and diluted with DMSO at 3 times for a total of 9 concentrations and set up three duplicate wells.
(§6) 3. Treatment of cells with compounds: Trypsin-digested HCT116 or HCT116-MTAP-KO cell suspension was added to the 384-well plates spotted with the compounds to be tested at 40 μL per well, i.e., 100 cells per well, and the final concentration of DMSO was 0.4%. The cell culture plate was incubated at 37° C. in a 5% CO2 incubator for 6 days.
(§7) 4. Detection: 20 μL of CellTiter Glo reagent was added to each well of the cell culture plate and incubated at room temperature for 30 minutes. A multimode reader was used to detect the luminescence signal at […].
(§8) The data was fitted with GraphPad Prism 8.0 software using a four parameter inhibitor-reaction model to obtain the IC50 value (half inhibitory concentration) of the test compounds.
(In general: In ATP-based viability assays light output follows the ATP content of the culture.)

In another assay the test system is HCT116 MTAP WT cells. Description: Proliferation inhibition of HCT116 cells in vitro (CellTiter Glo). It is filed as cell-based. The conditions noted are these: 6 days, 9 concentrations starting from 30 μM, read-out: Cell proliferation inhibition rate HCT116 MTAP WT IC50 (nm).
Source text: as §1, §2, §3, §4, §5, §6, §7, §8

Like-named read-outs stand apart in the source and are kept apart here. A value given as a limit tells only on which side of the number the result lay.

As to `CCN(Cc1ccc(C(F)(F)F)nn1)C(=O)c1cc2c(cc1F)nc(N)c1cnc(C)n12` [Example 81], the IC50 in assay [1] (HCT116-MTAP null, 144 h) lay within 100 to 1000 nM; with HCT116 MTAP WT cells (Homo sapiens, HCT-116, 144 h), 1000 to 10000 nM.

In the case of `Cc1ncc2c(N)nc3cc(F)c(C(=O)N(Cc4ccc(C(F)(F)F)cn4)c4cnn(C)n4)cc3n12` [Example 83], the IC50 in assay [1] (HCT116-MTAP null, 144 h) is less than 100 nM; with HCT116 MTAP WT cells (Homo sapiens, HCT-116, 144 h) it was 1000 to 10000 nM.

Regarding `CCN(Cc1ccc(OC2CC2)cn1)C(=O)c1cc2c(cc1F)nc(N)c1cnc(C)n12` [Example 85], the IC50 in assay [1] (HCT116-MTAP null, 144 h) was less than 100 nM; with HCT116 MTAP WT cells (Homo sapiens, HCT-116, 144 h), 1000 to 10000 nM.

For `Cc1ncc2c(N)nc3cc(F)c(C(=O)N4C(C)COCC4c4ccc(OC5CC5)cc4)cc3n12` (centres unmarked) [Example 87], the IC50 is less than 100 nM in assay [1] (HCT116-MTAP null, 144 h) and 1000 to 10000 nM in the assay on HCT116 MTAP WT cells (Homo sapiens, HCT-116, 144 h).

As for `Cc1ncc2c(N)nc3cc(F)c(C(=O)N(Cc4ccc(C(F)(F)F)cn4)c4cn[nH]c4)cc3n12` [Example 88], the IC50 was in the range of 100 to 1000 nM in assay [1] (HCT116-MTAP null, 144 h) and 1000 to 10000 nM in the assay with HCT116 MTAP WT cells (Homo sapiens, HCT-116, 144 h).

On to `Cc1ncc2c(N)nc3cc(F)c(C(=O)N4C(C)COCC4c4cnc(C(F)(F)F)s4)cc3n12` (centres unmarked) [Example 89], for which the IC50 is less than 100 nM in assay [1] (HCT116-MTAP null, 144 h) and 1000 to 10000 nM in the assay with HCT116 MTAP WT cells (Homo sapiens, HCT-116, 144 h).

For the molecule `Cc1ncc2c(N)nc3cc(F)c(C(=O)N(Cc4ccc(C(F)(F)F)cn4)c4cnn(C)c4)cc3n12` [Example 90], the IC50 in assay [1] (HCT116-MTAP null, 144 h) was less than 100 nM; in the assay on HCT116 MTAP WT cells (Homo sapiens, HCT-116, 144 h), 1000 to 10000 nM.

As for `CCOc1ccc(CN(CC)C(=O)c2cc3c(cc2F)nc(N)c2c(C)ncn23)nn1` [Example 95], the results for the IC50 (in assay [1]; in the assay on HCT116 MTAP WT cells) were 100 to 1000 nM and 1000 to 10000 nM, respectively.

Regarding `CCN(Cc1ccc(OC2COC2)cn1)C(=O)c1cc2c(cc1F)nc(N)c1cnc(C)n12` [Example 99], the IC50 is 100 to 1000 nM in assay [1] (HCT116-MTAP null, 144 h) and 1000 to 10000 nM in the assay on HCT116 MTAP WT cells (Homo sapiens, HCT-116, 144 h).

On to `Cc1ncn2c1c(N)nc1cc(F)c(C(=O)N3C(C)COCC3c3ccc(C(F)F)cn3)cc12` (centres unmarked) [Example 101], for which the IC50 in assay [1] is less than 100 nM; in the assay with HCT116 MTAP WT cells, 100 to 1000 nM.

Turning to `CCOc1ccc(CN(CC)C(=O)c2cc3c(cc2F)nc(N)c2cnc(C)n23)nn1` [Example 102], the IC50 in assay [1] (HCT116-MTAP null, 144 h) is less than 100 nM; in the assay on HCT116 MTAP WT cells (Homo sapiens, HCT-116, 144 h), 1000 to 10000 nM.

Take `CCOCCc1ccc(C2COCC(C)N2C(=O)c2cc3c(cc2F)nc(N)c2c(C)ncn23)nc1` (centres unmarked) [Example 103]: the IC50 is less than 100 nM in assay [1] (HCT116-MTAP null, 144 h) and 1000 to 10000 nM with HCT116 MTAP WT cells (Homo sapiens, HCT-116, 144 h).

On to `COCCOc1ccc(C2COCC(C)N2C(=O)c2cc3c(cc2F)nc(N)c2c(C)ncn23)nc1` (centres unmarked) [Example 105], for which the IC50 in assay [1] (HCT116-MTAP null, 144 h) is less than 100 nM; in the assay on HCT116 MTAP WT cells (Homo sapiens, HCT-116, 144 h) it was 1000 to 10000 nM.

Take `Cc1ncn2c1c(N)nc1cc(F)c(C(=O)N3C(c4ccc(C#N)cn4)COC[C@H]3C)cc12` (some centres unmarked) [Example 108]: the IC50 in assay [1] (HCT116-MTAP null, 144 h) is less than 100 nM; in the assay with HCT116 MTAP WT cells (Homo sapiens, HCT-116, 144 h), 1000 to 10000 nM.

`Cc1nn(C)cc1N(Cc1ccc(C(F)(F)F)cn1)C(=O)c1cc2c(cc1F)nc(N)c1cnc(C)n12` [Example 109]: the IC50 in assay [1] (HCT116-MTAP null, 144 h) is less than 100 nM; in the assay on HCT116 MTAP WT cells (Homo sapiens, HCT-116, 144 h), 1000 to 10000 nM.

In the case of `Cc1ncc2c(N)nc3cc(F)c(C(=O)N4C(c5ccc(C(F)F)cn5)COC[C@H]4C)cc3n12` (some centres unmarked) [Example 110], the IC50 in assay [1] (HCT116-MTAP null, 144 h) is less than 100 nM; in the assay with HCT116 MTAP WT cells (Homo sapiens, HCT-116, 144 h) it was 100 to 1000 nM.

As to `Cc1ncn2c1c(N)nc1cc(F)c(C(=O)N3C(C)COCC3c3ccc(C4CCOCC4)cn3)cc12` (centres unmarked) [Example 112], the IC50 in assay [1] (HCT116-MTAP null, 144 h) was less than 100 nM; with HCT116 MTAP WT cells (Homo sapiens, HCT-116, 144 h), 1000 to 10000 nM.

`Cc1ncc2c(N)nc3cc(F)c(C(=O)N(Cc4ccc(C(F)(F)F)cn4)c4ncn(C)n4)cc3n12` [Example 115]: the IC50 in assay [1] (HCT116-MTAP null, 144 h) was in the range of 100 to 1000 nM; in the assay on HCT116 MTAP WT cells (Homo sapiens, HCT-116, 144 h), 1000 to 10000 nM.

As for `Cc1ncc2c(N)nc3cc(F)c(C(=O)N(Cc4ccc(OCC(F)(F)F)cn4)c4cnn(C)c4)cc3n12` [Example 116], the IC50 lay within 100 to 1000 nM in assay [1] (HCT116-MTAP null, 144 h) and 1000 to 10000 nM with HCT116 MTAP WT cells (Homo sapiens, HCT-116, 144 h).

Consider `Cc1nn(C)cc1N(Cc1cn2cc(C(F)(F)F)ccc2n1)C(=O)c1cc2c(cc1F)nc(N)c1cnn(C)c12` [Example 204], for which, in the assay with HCT116 MTAP WT cells (Homo sapiens, HCT-116, 144 h), the IC50 lay in the range of 1000 to 10000 nM.

On to `Cn1nccc1N(Cc1cn2cc(C(F)(F)F)ccc2n1)C(=O)c1cc2c(cc1F)nc(N)c1cnn(C)c12` [Example 218], for which, in the assay on HCT116 MTAP WT cells (Homo sapiens, HCT-116, 144 h), the IC50 was in the range of 1000 to 10000 nM.

Turning to `C[C@@H]1COC[C@H](c2cn3ccccc3n2)N1C(=O)c1ccc2nc(N)c3cnn(C)c3c2c1` [Example 416], in assay [1] (HCT116-MTAP null, 144 h), the IC50 fell in the range of 100 to 1000 nM.
